This note sets out measurements from US7928119B2, “Use of EP4 receptor ligands in the treatment of IL-6 involved diseases” (Pfizer Inc., priority 2002, dated 2011).

pIC50: −log10 of the molar value.

Test system in the first series: not given
Experiment: not given
Conditions: not given
In turn, `CCc1nc2cc(N(C)C)c(Cl)cc2n1-c1ccc(CCNC(=O)NS(=O)(=O)c2ccc(C)cc2)cc1` displayed a melting point of 108 to 114 °C.
On the same count and under the same terms, with `CCc1nc2cc(NS(C)(=O)=O)c(Cl)cc2n1-c1ccc(CCNC(=O)NS(=O)(=O)c2ccc(C)cc2)cc1` the figure was 101 to 123 °C; with `CCc1nc2c(C)c(C#N)c(C)nc2n1-c1ccc(CCNC(=O)NS(=O)(=O)c2ccc(C)cc2)cc1` [Example 41, 6-CYANO-2-ETHYL-5,7-DIMETHYL-3-(4-{2-[({[(4-METHYLPHENYL)SULFONYL]AMINO}CARBONYL)AMINO]ETHYL}PHENYL)-3H-IMIDAZO[4,5-b]PYRIDINE], 133 °C.
With `CCc1nc2cc(Cl)c(Cl)nc2n1-c1ccc(CCNC(=O)NS(=O)(=O)c2ccc(C)cc2)cc1`, the melting point is 188 to 189 °C.
`CCc1nc2cc(C(C)O)ccc2n1-c1ccc(CCNC(=O)NS(=O)(=O)c2ccc(C)cc2)cc1` (stereo not shown) [Example 345, N-{[(2-{4-[2-ETHYL-5-(1-HYDROXYETHYL)-1H -BENZIMIDAZOL-1-YL]PHENYL}ETHYL)AMINO]CARBONYL}-4-METHYLBENZENESULFONAMIDE]: the melting point came to 190 °C.
On the same count and under the same terms, with `CCc1nc2cc(NC(C)=O)c(Cl)cc2n1-c1ccc(CCNC(=O)NS(=O)(=O)c2ccc(C)cc2)cc1` the figure was 125 to 133 °C.
With `CCc1nc2c(C)cc(C)nc2n1-c1ccc(CC(C)NC(=O)NS(=O)(=O)c2ccc(C)cc2)cc1` (stereo not shown), the melting point came to 128 °C.
The same measure, in the same setting: with `CCc1nc2c(C)c(C#N)c(C)cc2n1-c1ccc(CCNC(=O)NS(=O)(=O)c2ccc(C)cc2)cc1` the figure was 140 to 145 °C; with `CCc1nc2c(C(N)=O)cccc2n1-c1ccc(CCNC(=O)NS(=O)(=O)c2ccc(C)cc2)cc1`, 208 to 214 °C.
Same read-out and setting: with `Cc1ccc(S(=O)(=O)NC(=O)NCCc2ccc(-n3c(C(C)O)nc4cc(C(F)(F)F)c(Cl)cc43)cc2)cc1` (stereo not shown) [Example 367, N-{[(2-{4-[6-CHLORO-2-(1-HYDROXYETHYL)-5-(TRIFLUOROMETHYL)-1H-BENZIMIDAZOL-1-YL]PHENYL}ETHYL)AMINO]CARBONYL}-4-METHYLBENZENESULFONAMIDE] the figure was 220 °C.
In turn, `CCc1nc2cc(C(F)(F)F)c(Cl)cc2n1-c1ccc(C[C@@H](C)NC(=O)NS(=O)(=O)c2ccc(C)cc2)cc1` [Example 255, N-{[((1R)-2-{4-[6-CHLORO-2-ETHYL-5-(TRIFLUOROMETHYL)-1H-BENZIMIDAZOL-1-YL]PHENYL}-1-METHYLETHYL)AMINO]CARBONYL}-4-METHYLBENZENESULFONAMIDE] gave a melting point of 138 to 141 °C.
Still for that read-out and setting: in the case of `CCc1nc2c(Cl)nc(C)cc2n1-c1ccc(CCNC(=O)NS(=O)(=O)c2ccc(C)cc2)cc1` it was 163 °C; in that of `CCc1nc2cc(S(C)(=O)=O)c(Cl)cc2n1-c1ccc(CCNC(=O)NS(=O)(=O)c2ccc(C)cc2)cc1`, 105 to 118 °C.
Same read-out and setting: with `CCc1nc2c(C)cc(C)nc2n1-c1ccc(CCNC(=O)NS(=O)(=O)c2cc3ccccc3s2)cc1` the figure was 128 to 130 °C; with `CCc1nc2c(C#N)cccc2n1-c1ccc(CCNC(=O)NS(=O)(=O)c2ccc(C)cc2)cc1` [Example 321, 4-CYANO-2-ETHYL-1-(4-{2-[({[(4-METHYLPHENYL)SULFONYL]AMINO}CARBONYL)AMINO]ETHYL}PHENYL)-1H-BENZIMIDAZOLE], 95 to 103 °C; with `CCc1nc2c(C)c(NS(C)(=O)=O)cnc2n1-c1ccc(CCNC(=O)NS(=O)(=O)c2ccc(C)cc2)cc1`, 166 °C.
Still for that read-out and setting: with `CCc1nc2cc(C(F)(F)F)c(Cl)cc2n1-c1ccc(C[C@H](C)NC(=O)NS(=O)(=O)c2ccc(C)cc2)cc1` [Example 254, N-{[((1S)-2-{4-[6-CHLORO-2-ETHYL-5-(TRIFLUOROMETHYL)-1H-BENZIMIDAZOL-1-YL]PHENYL}-1-METHYLETHYL)AMINO]CARBONYL}-4-METHYLBENZENESULFONAMIDE] the figure was 141 to 143 °C; with `CCc1nc2cc(C(N)=O)c(Cl)cc2n1-c1ccc(CCNC(=O)NS(=O)(=O)c2ccc(C)cc2)cc1`, 152 to 163 °C; with `CCc1nc2cc(COC)c(Cl)cc2n1-c1ccc(CCNC(=O)NS(=O)(=O)c2ccc(C)cc2)cc1` [Example 338, N-({[2-(4-{6-CHLORO-2-ETHYL-5-[(METHYLOXY)METHYL]-1H-BENZIMIDAZOL-1-YL}PHENYL)ETHYL]AMINO}CARBONYL)-4-METHYLBENZENSULFONAMIDE], 134.6 °C.
With `CCc1nc2cc(C(=O)NC)c(Cl)cc2n1-c1ccc(CCNC(=O)NS(=O)(=O)c2ccc(C)cc2)cc1` [Example 333, 6-CHLORO-2-ETHYL-N-METHYL-1-(4-{2-[({[(4-METHYLPHENYL)SULFONYL]AMINO}CARBONYL)AMINO]ETHYL}PHENYL)-1H-BENZIMIDAZOLE-5-CARBOXAMIDE], the melting point was in the range of 122 to 135 °C.
On the same count and under the same terms, with `CCc1nc2cc(NC)c(Cl)cc2n1-c1ccc(CCNC(=O)NS(=O)(=O)c2ccc(C)cc2)cc1` the figure was 95 to 100 °C.
The same measure, in the same setting: in the case of `CCc1nc2cc(C(F)(F)F)c(Cl)cc2n1-c1ccc(CCOC(=O)NS(=O)(=O)c2cn(C)c(C)n2)cc1` [Example 294, 2-{4-[6-CHLORO-2-ETHYL-5-(TRIFLUOROMETHYL)-1H-BENZIMIDAZOL-1-YL]PHENYL}ETHYL-(1,2-DIMETHYL-1H-IMIDAZOL-4-YL)SULFONYLCARBAMATE] it was 221.2 °C; in that of `CCc1nc2cc(C(F)(F)F)c(Cl)cc2n1-c1ccc(CCOC(=O)NS(=O)(=O)c2cccc3c(N(C)C)cccc23)cc1`, 203.4 °C.
Same read-out and setting: in the case of `CCc1nc2cc(C)c(Cl)nc2n1-c1ccc(CCNC(=O)NS(=O)(=O)c2ccc(C)cc2)cc1` [Example 38, 5-CHLORO-2-ETHYL-6-METHYL-3-(4-{2-[({[(4-METHYLPHENYL)SULFONYL]AMINO}CARBONYL)AMINO]ETHYL}PHENYL)-3H-IMIDAZO[4,5-b]PYRIDINE] it was 205 to 206 °C; in that of `CCc1nc2cc(S(N)(=O)=O)c(Cl)cc2n1-c1ccc(CCNC(=O)NS(=O)(=O)c2ccc(C)cc2)cc1`, 163 to 170 °C; in that of `CCc1nc2cc(C(=O)O)c(Cl)cc2n1-c1ccc(CCNC(=O)NS(=O)(=O)c2ccc(C)cc2)cc1` [Example 112, 6-CHLORO-2-ETHYL-1-(4-{2-[({[(4-METHYLPHENYL)SULFONYL]AMINO}CARBONYL)AMINO]ETHYL}PHENYL)-1H-BENZIMIDAZOLE-5-CARBOXYLIC ACID], 145 to 150 °C.
The molecule `CCc1nc2cc(C(F)(F)F)c(Cl)cc2n1-c1ccc(CCN(C(=O)O)S(=O)(=O)c2ccc(C)cn2)cc1.Cl.Cl` returned a melting point of 200.2 °C.
The same measure, in the same setting: in the case of `CC(=O)c1nc2cc(C(F)(F)F)c(Cl)cc2n1-c1ccc(CCNC(=O)NS(=O)(=O)c2ccc(C)cc2)cc1` [Example 368, N-{[(2-{4-[2-ACETYL-6-CHLORO-5-(TRIFLUOROMETHYL)-1H-BENZIMIDAZOL-1-YL]PHENYL}ETHYL)AMINO]CARBONYL}-4-METHYLBENZENESULFONAMIDE] it was 225 °C; in that of `CCc1nc2cc(C(F)(F)F)c(Cl)cc2n1-c1ccc(CCOC(=O)NS(=O)(=O)c2ccccn2)cc1`, 127 to 130 °C; in that of `CCc1nc2cc(C(F)(F)F)c(Cl)cc2n1-c1ccc(CCOC(=O)NS(=O)(=O)c2cn(C)cn2)cc1` [Example 292, 2-{4-[6-CHLORO-2-ETHYL-5-(TRIFLUOROMETHYL)-1H-BENZIMIDAZOL-1-YL]PHENYL}ETHYL-(1-METHYL-1H-IMIDAZOL-4-YL)SULFONYLCARBAMATE], 204.3 °C.
In turn, `CCc1nc2c(C)cc(C)nc2n1-c1ccc(CCNC(=O)NS(=O)(=O)c2ccncc2)cc1` [Example 274, 2-ETHYL-3-(4-{2-[({[4-PYRIDINYLSULFONYL]AMINO}CARBONYL)AMINO]ETHYL}PHENYL)-5,7-DIMETHYL-3H-IMIDAZO[4,5-b]PYRIDINE] showed a melting point of 227.9 to 228.7 °C.

The test system of the next series is human PBMC. In words: PGE2 stimulation of IL-6 secretion in ConA-treated human PBMC and its inhibition by EP4 antagonists (ELISA). The format is cell-based. The note with it: ConA-treated PBMC, 50 μM compound, PGE2 10-1000 nM, 24 hr. As to the method:
PBMC were stimulated with 5 μg/ml of Con A alone or with 10 nM to 1000 nM PGE2 at 37° C. for 24 hr. The secreted IL-6 in culture medium was measured by ELISA. Data are expressed as mean±s.d. (FIG. 1)
The PGE2 concentration-dependence of stimulation of IL-6 secretion by human PBMC without and with ConA-stimulation, and the inhibitory effect of Compound A. PBMC were stimulated with 5 μg/ml of Concanavalin A alone or with 10 nM to 1000 nM PGE2 at 37° C. in 5% CO2 for 24 hr. To see the effect of Compound A, 50 μM of Compound A was added simultaneously with ConA and PGE2, and incubated for 24 hr. Data in parenthesis are expressed % control of mitocondorial dehydrogenase activity. (FIG. 2)
Compound A and Compound B inhibited the IL-6 secretion in ConA-treated PBMC. (FIG. 3.) PBMC were incubated with 5 μg/ml of Con A, 100 nM PGE2 and various doses of EP4 antagonists at 37° C. for 24 hr. The secreted IL-6 in culture medium was measured by ELISA. Data are expressed as mean±s.d.
(In general: An ELISA detects its analyte on a solid surface through an enzyme-linked reagent.)
On to `CCc1nc2c(C)cc(C)nc2n1-c1ccc(CCNC(=O)NS(=O)(=O)c2ccc(C)cc2)cc1` [Compound A, N-[({2-[4-(2-ethyl-5,7-dimethyl-3H-imidazo[4,5-b]pyridin-3-yl)phenyl]ethyl}amino)carbonyl]-4-methylbenzenesulfonamide], for which the “IL-6 production enhanced by PGE2” value is given as “significantly inhibited”.

Still in this series, the particulars now being: Homo sapiens; PBMC stimulated with 5 μg/ml ConA and 100 nM PGE2 for 24 hr; read-out: IC50 of inhibition of IL-6 production.
For the molecule `CCc1nc2c(C)cc(C)nc2n1-c1ccc(CCNC(=O)NS(=O)(=O)c2ccc(C)cc2)cc1` [Compound A, N-[({2-[4-(2-ethyl-5,7-dimethyl-3H-imidazo[4,5-b]pyridin-3-yl)phenyl]ethyl}amino)carbonyl]-4-methylbenzenesulfonamide], the pIC50 was 7.89.

The same series, now with this note: PBMC, 5 μg/ml ConA, 24 hr, without PGE2.
Concanavalin A [ConA]: the “secretion of IL-6” value was “enhanced”.

The melting point is the temperature, or range, at which the solid turns liquid. By pIC50 is commonly meant −log10 of the IC50, conventionally taken in molar units.
